Among the data in patent publication US20220112187A1, “PYRAZOLOPYRIDINE AMINE COMPOUNDS FOR THE TREATMENT OF AUTOIMMUNE DISEASE” (Hoffmann-La Roche Inc., priority 2018, published 2022) are IC50 values, retold here.

The IC50 is the concentration at which inhibition is half-maximal. Low values mean greater potency, high ones weaker potency.

This assay deals with T1, human TLR8 (Homo sapiens, UniProt Q9NR97).
T1 sequence (Q9NR97 27-1041): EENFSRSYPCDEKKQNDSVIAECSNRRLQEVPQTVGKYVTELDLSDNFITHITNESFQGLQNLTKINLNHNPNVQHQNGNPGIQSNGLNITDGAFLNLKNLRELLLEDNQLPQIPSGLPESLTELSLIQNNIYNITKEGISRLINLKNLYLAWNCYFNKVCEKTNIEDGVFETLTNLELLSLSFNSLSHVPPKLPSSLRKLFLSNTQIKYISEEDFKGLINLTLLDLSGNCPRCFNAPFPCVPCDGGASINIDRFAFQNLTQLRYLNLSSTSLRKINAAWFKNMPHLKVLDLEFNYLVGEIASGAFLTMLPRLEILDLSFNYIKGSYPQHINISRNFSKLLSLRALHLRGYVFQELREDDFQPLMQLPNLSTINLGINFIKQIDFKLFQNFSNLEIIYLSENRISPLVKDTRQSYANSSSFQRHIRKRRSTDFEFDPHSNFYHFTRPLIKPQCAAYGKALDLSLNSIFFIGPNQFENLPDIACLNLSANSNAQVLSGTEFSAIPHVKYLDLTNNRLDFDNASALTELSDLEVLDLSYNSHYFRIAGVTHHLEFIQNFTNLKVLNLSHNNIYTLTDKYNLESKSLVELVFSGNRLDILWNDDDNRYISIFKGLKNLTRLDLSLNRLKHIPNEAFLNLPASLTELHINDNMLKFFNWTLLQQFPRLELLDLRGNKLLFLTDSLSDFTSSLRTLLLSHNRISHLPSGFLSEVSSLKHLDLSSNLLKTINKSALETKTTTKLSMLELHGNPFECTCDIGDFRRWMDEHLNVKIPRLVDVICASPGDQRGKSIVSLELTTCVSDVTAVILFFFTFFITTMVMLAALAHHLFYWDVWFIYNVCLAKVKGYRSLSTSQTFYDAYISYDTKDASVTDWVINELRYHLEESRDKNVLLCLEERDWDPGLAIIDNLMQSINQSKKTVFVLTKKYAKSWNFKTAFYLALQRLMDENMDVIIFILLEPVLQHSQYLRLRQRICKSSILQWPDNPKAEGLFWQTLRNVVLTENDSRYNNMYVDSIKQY
Put plainly: HEK293-Blue-hTLR-8 cells assay (SEAP reporter, R848 stimulation). It is filed as cell-based. Conditions: HEK293-Blue-hTLR8 cells, R848 ligand, 20 hrs incubation. From the text:
A stable HEK293-Blue-hTLR-8 cell line was purchased from InvivoGen (Cat. #: hkb-htlr8, San Diego, Calif., USA). These cells were originally designed for studying the stimulation of human TLR8 by monitoring the activation of NF-κB. A SEAP (secreted embryonic alkaline phosphatase) reporter gene was placed under the control of the IFN-β minimal promoter fused to five NF-κB and AP-1-binding sites. The SEAP was induced by activating NF-κB and AP-1 via stimulating HEK-Blue hTLR8 cells with TLR8 ligands. Therefore the reporter expression was declined by TLR8 antagonist under the stimulation of a ligand, such as R848, for incubation of 20 hrs. The cell culture supernatant SEAP reporter activity was determined using QUANTI-Blue™ kit (Cat. #: rep-qb1, Invivogen, San Diego, Ca, USA) at a wavelength of 640 nm, a detection medium that turns purple or blue in the presence of alkaline phosphatase.
HEK293-Blue-hTLR8 cells were incubated at a density of 250,000˜450,000 cells/mL in a volume of 170 μL in a 96-well plate in Dulbecco's Modified Eagle's medium (DMEM) containing 4.5 g/L glucose, 50 U/mL penicillin, […], […], 2 mM L-glutamine, 10% (v/v) heat-inactivated fetal bovine serum with addition of 20 μL test compound in a serial dilution in the presence of final DMSO at 1% and 10 μL of 60 uM R848 in above DMEM, perform incubation under 37° C. in a CO2 incubator for 20 hrs. Then 20 μL of the supernatant from each well was incubated with 180 μL Quanti-blue substrate solution at 37° C. for 2 hrs and the absorbance was read at 620˜655 nm using a spectrophotometer. The signalling pathway that TLR8 activation leads to downstream NF-κB activation has been widely accepted, and therefore similar reporter assay was modified for evaluating TLR8 antagonist.

`C[C@@H]1CN(c2ccc(C#N)n3nccc23)C[C@H](CN2CCC(CCN)CC2)O1` [Example 13, 4-[(2S,6R)-2-[[4-(2-aminoethyl)-1-piperidyl]methyl]-6-methyl-morpholin-4-yl]pyrazolo[1,5-a]pyridine-7-carbonitrile] returned an IC50 of 740 nM.
Next, `C[C@@H]1CN(c2ccc(C#N)n3nccc23)C[C@H](CN2CCNC3(CC3)C2)O1` [Example 40, 4-[(2S,6R)-2-(4,7-diazaspiro[2.5]octan-7-ylmethyl)-6-methyl-morpholin-4-yl]pyrazolo[1,5-a]pyridine-7-carbonitrile]: 140 nM; `C[C@@H]1CN(c2ccc(C#N)n3nccc23)C[C@H](CN2CCC3(CCNC3)C2=O)O1` (stereo partly drawn) [Example 21, 4-[(2R,6R)-2-methyl-6-[(1-oxo-2,7-diazaspiro[4.4]nonan-2-yl)methyl]morpholin-4-yl]pyrazolo[1,5-a]pyridine-7-carbonitrile]: 39 nM; `C[C@@H]1CN(c2ccc(C#N)n3nccc23)C[C@H](CNC2CCN(C)CC2)O1` [Example 7, 4-[(2R,6S)-2-methyl-6-[[(1-methyl-4-piperidyl)amino]methyl]morpholin-4-yl]pyrazolo[1,5-a]pyridine-7-carbonitrile]: 320 nM.
In turn, `C[C@@H]1CN(c2ccc(C#N)n3ncc(F)c23)C[C@H](CN2CCCC3(CCNCC3)C2)O1` [Example 67, 4-[(2S,6R)-2-(2,9-diazaspiro[5.5]undecan-2-ylmethyl)-6-methyl-morpholin-4-yl]-3-fluoro-pyrazolo[1,5-a]pyridine-7-carbonitrile] displayed an IC50 of 38 nM.
In the case of `C[C@@H]1CN(c2ccc(C#N)n3ncc(F)c23)C[C@H](CN2CCC3(CCCNC3)C2)O1` (stereo partly drawn) [Example 69, 3-fluoro-4-[(2S,6R)-2-(2,9-diazaspiro[4.5]decan-2-ylmethyl)-6-methyl-morpholin-4-yl]pyrazolo[1,5-a]pyridine-7-carbonitrile] it was 26 nM; in that of `C[C@@H]1CN(c2ccc(C#N)n3nccc23)C[C@H](CN2CCC3(CCNC3)CC2)O1` [Example 19, 4-[(2S,6R)-2-(2,8-diazaspiro[4.5]decan-8-ylmethyl)-6-methyl-morpholin-4-yl]pyrazolo[1,5-a]pyridine-7-carbonitrile], 250 nM.
The compound `C[C@@H]1CN(c2ccc(C#N)n3nccc23)C[C@H](CN2CC3CNCC3C2)O1` (stereo partly drawn) [Example 22, 4-[(2S,6R)-2-(2,3,3a,4,6,6a-hexahydro-1H-pyrrolo[3,4-c]pyrrol-5-ylmethyl)-6-methyl-morpholin-4-yl]pyrazolo[1,5-a]pyridine-7-carbonitrile] displayed an IC50 of 69 nM.
`C[C@@H]1CN(c2ccc(C#N)n3ncc(F)c23)C[C@H](CN2CCCC3(CCNC3)C2)O1` (stereo partly drawn) [Example 68, 3-fluoro-4-[(2S,6R)-2-(2,7-diazaspiro[4.5]decan-7-ylmethyl)-6-methyl-morpholin-4-yl]pyrazolo[1,5-a]pyridine-7-carbonitrile] showed a concentration for half-maximal inhibition (IC50) of 11 nM.
In the case of `C[C@@H]1CN(c2ccc(C#N)n3nccc23)C[C@H](CN2CCN(C(=O)CN)CC2)O1` [Example 14, 4-[(2S,6R)-2-[[4-(2-aminoacetyl)piperazin-1-yl]methyl]-6-methyl-morpholin-4-yl]pyrazolo[1,5-a]pyridine-7-carbonitrile] it was 380 nM.
In the case of `C[C@@H]1CN(c2ccc(C#N)n3nccc23)C[C@H](CN2CCC3(CC2)CNCCO3)O1` [Example 60, 4-[(2R,6S)-2-methyl-6-(1-oxa-4,9-diazaspiro[5.5]undecan-9-ylmethyl)morpholin-4-yl]pyrazolo[1,5-a]pyridine-7-carbonitrile] it was 96 nM; in that of `C[C@@H]1CN(c2ccc(C#N)n3nccc23)C[C@H](CN2CCCC3CNCC32)O1` (stereo partly drawn) [Example 61, 4-[(2S,6R)-2-(2,3,4,4a,5,6,7,7a-octahydropyrrolo[3,4-b]pyridin-1-ylmethyl)-6-methyl-morpholin-4-yl]pyrazolo[1,5-a]pyridine-7-carbonitrile], 300 nM; in that of `C[C@@H]1CN(c2ccc(C#N)n3nccc23)C[C@H](CN2CC[C@H](N)[C@H](C)C2)O1` [Example 74, 4-[(2S,6R)-2-[[(3R,4S)-4-amino-3-methyl-1-piperidyl]methyl]-6-methyl-morpholin-4-yl]pyrazolo[1,5-a]pyridine-7-carbonitrile], 39 nM.
In the case of `C[C@@H]1CN(c2ccc(C#N)n3nccc23)C[C@H](CN2CCC3(CCCNC3)CC2)O1` [Example 27, 4-[(2S,6R)-2-(2,9-diazaspiro[5.5]undecan-9-ylmethyl)-6-methyl-morpholin-4-yl]pyrazolo[1,5-a]pyridine-7-carbonitrile] it was 190 nM; in that of `C[C@@H]1CN(c2ccc(C#N)n3nccc23)C[C@H](CN2CCC(N3CCCCC3)CC2)O1` [Example 16, 4-[(2R,6S)-2-methyl-6-[[4-(1-piperidyl)-1-piperidyl]methyl]morpholin-4-yl]pyrazolo[1,5-a]pyridine-7-carbonitrile], 19 nM; in that of `C[C@@H]1CN(c2ccc(C#N)n3nccc23)C[C@H](CN2CCNCC2)O1` [Example 5, 4-[(2R,6S)-2-methyl-6-(piperazin-1-ylmethyl)morpholin-4-yl]pyrazolo[1,5-a]pyridine-7-carbonitrile], 78 nM.
The compound `C[C@@H]1CN(c2ccc(C#N)n3nccc23)C[C@H](CN2CCC3NCCC3C2)O1` (stereo partly drawn) [Example 41, 4-[(2S,6R)-2-(1,2,3,3a,4,6,7,7a-octahydropyrrolo[3,2-c]pyridin-5-ylmethyl)-6-methyl-morpholin-4-yl]pyrazolo[1,5-a]pyridine-7-carbonitrile] gave an IC50 of 29 nM.
In the case of `C[C@@H]1CN(c2ccc(C#N)n3nccc23)C[C@H](CN2C3CCCC2CC(N)C3)O1` (stereo partly drawn) [Example 66, Exo-4-[(2S,6R)-2-[(3-amino-9-azabicyclo[3.3.1]nonan-9-yl)methyl]-6-methyl-morpholin-4-yl]pyrazolo[1,5-a]pyridine-7-carbonitrile] it was 140 nM; in that of `C[C@@H]1CN(c2ccc(C#N)n3nccc23)C[C@H](CN2CC3(CCNC3)CC2=O)O1` (stereo partly drawn) [Example 20, 4-[(2R,6R)-2-methyl-6-[(3-oxo-2,7-diazaspiro[4.4]nonan-2-yl)methyl]morpholin-4-yl]pyrazolo[1,5-a]pyridine-7-carbonitrile], 610 nM; in that of `C[C@@H]1CN(c2ccc(C#N)n3nccc23)C[C@H](CN2CCCC3(CCNCC3)C2)O1` [Example 32, 4-[(2S,6R)-2-(2,9-diazaspiro[5.5]undecan-2-ylmethyl)-6-methyl-morpholin-4-yl]pyrazolo[1,5-a]pyridine-7-carbonitrile], 91 nM.
Next, `C[C@@H]1CN(c2ccc(C#N)n3nccc23)C[C@H](CN2C3CNCC2COC3)O1` [Example 57, 4-[(2R,6S)-2-methyl-6-(3-oxa-7,9-diazabicyclo[3.3.1]nonan-9-ylmethyl)morpholin-4-yl]pyrazolo[1,5-a]pyridine-7-carbonitrile]: 62 nM; `C[C@@H]1CN(c2ccc(C#N)n3nccc23)C[C@H](CN2CC3CCC(C2)N3)O1` [Example 31, 4-[(2S,6R)-2-(3,8-diazabicyclo[3.2.1]octan-3-ylmethyl)-6-methyl-morpholin-4-yl]pyrazolo[1,5-a]pyridine-7-carbonitrile]: 97 nM.
